Literature values as cited in patent US7105176B2, “Production of solid preparations of water-soluble, sparingly water-soluble or water-insoluble active compounds” (BASF Aktiengesellschaft, priority 2000, dated 2006).

Conditions: at 314 nm

- extinction coefficient: > 1500
SMILES: CCCCC(CC)COC(=O)c1ccc(Nc2nc(Nc3ccc(C(=O)OCC(CC)CCCC)cc3)nc(Nc3ccc(C(=O)OCC(CC)CCCC)cc3)n2)cc1 (stereo not shown) [Uvinul® T150, 2,4,6-trianilino-p-(carbo-2′-ethylhexyl-1′-oxy)-1,3,5-triazine]
